pIC50: −log10 of the molar value.

Among the data in patent US20260297095A1, “NOVEL PYRROLOTRIAZINE DERIVATIVE AND USE THEREOF” (Pelemed Co., Ltd., priority 2024, published 2026) are GI50, IC50 and inhibition values, retold here.

Assay [1] relates to KYSE-70 esophageal cancer cell line. Kind of assay: Cell growth inhibition of KYSE-70 (Sulforhodamine B). Format: cell-based. The note with it: Homo sapiens; KYSE-70, 72 hours; read-out: KYSE70 GI50. The procedure: The cell line according to the present invention was selected as KYSE-70, an esophageal cancer cell line in which YES1 is amplified. The evaluation of cell growth inhibition was performed as follows.
KYSE-70 was cultured in RPMI-1640 (Capricorn) supplemented with 10% FBS (Cellgro). The cells were seeded 24 hours prior to compound treatment, into three 96-well F-bottom clear plates (Greiner), with 7,500 cells per well in 180 μL of medium. The 10 mM compound was diluted 100-fold in medium to prepare a 100 μM compound, which was then placed into a 96-well plate and further 3-fold diluted in medium to prepare a compound plate with concentrations ranging from 0.046 μM to 100 μM. 20 μL of each compound from the drug plate was added to the cell-seeded plates to achieve final concentrations of 0.0046 μM to 10 μM. At the same time, 50 μL of 33% trichloroacetic acid was injected into one plate and the plate was fixed by incubating at 4° C. This was referred to as the Do plate. Viable cells were measured 72 hours after compound treatment by injecting 50 μL of 33% trichloroacetic acid and incubating at 4° C. for more than 1 hour to fix the cells. This was referred to as the D3 plate. After the Do plate and D3 plates were washed 5 times with sterile water, 100 μL of 0.04% Sulforhodamine B solution in 1% acetic acid was added and reacted for 1 hour to stain the cells. After staining, the plates were washed 4 times with 1% acetic acid solution and completely dried. Then, the Sulforhodamine B bound to cellular proteins was completely dissolved with 10 mM Tris base solution (pH 10.5). The absorbance was measured at a wavelength of 510 nm using a microplate reader (TECAN, sunrise microplate reader). The analysis was performed using GraphPad Prism. The average absorbance of the Do plate was set to 0%, and the average absorbance of the negative control of the D3 plate was set to 100%, from which a graph was drawn and the GI50 values were calculated. Each test was performed twice.

Another assay addresses YES1 kinase (Homo sapiens, UniProt P07947). The experiment in a line: YES1 kinase inhibition, ADP Glo assay (Promega). The note with it: for pIC50: class symbols, read-out: YES1 enzyme, IC50. It is filed as biochemical. The procedure: To evaluate the inhibitory activity against YES1 kinase of the compound according to the present invention, ADP Glo assay (Promega) was used, and the following method was performed with reference to the Promega kinase enzyme system protocol. To proceed with the experiment, buffers A-F and compound dilution plates were required.
To prepare A.4X reaction buffer, 800 μl of 5X reaction buffer and 200 μl of distilled water were used. To prepare B.4X kinase buffer, 996.6 μl of A.4X reaction buffer, 2 μl of 0.1M DTT, and 3.2 μl of 2.5M MnCl2 were added and mixed. To prepare C.1X kinase buffer (containing 5% DMSO) used for compound dilution, 250 μl of B.4X kinase buffer, 700 μl of distilled water, and 50 μl of DMSO were added, so that the final DMSO concentration became 5%. Then, 10 mM compounds were diluted 100-fold to prepare 100 μM solutions, and then D.5X inhibitor solution was prepared so that the compound concentration became 5 uM. Using a 96-well plate, 5 μM compounds were 3-fold diluted using C.1X kinase buffer (containing 5% DMSO) to prepare compound plates with concentrations ranging from 0.25 μM to 5 μM. The resulting plates were stored at room temperature. To prepare E. 2.5X ATP/substrate mixture, 50 μl of B.4X kinase buffer, 50 μl of […], and 100 μl of substrate were mixed. To prepare F YES1 kinase enzyme solution, 35 μl of B.4X kinase buffer, 0.4 μl of YES1 enzyme, and 104.6 μl of distilled water were used. Once the diluted compound plates, ATP/substrate mixture, and YES1 kinase solution were all prepared, 3 μL each was transferred from the diluted compound plate to a luciferase 96-well white plate (Since the total volume of the ATP/substrate and YES1 kinase solution that reacts with the compound is 15 μL, the compounds were diluted 5-fold, making the final compound concentration 0.05 μM-1 μM). Then, 6 μL of F. YES1 Kinase Enzyme Solution was transferred to each well, pipetted 10 times to mix, and incubated at room temperature in a shaker for 10 minutes. Next, 6 μL of E. 2.5X ATP/Substrate Mixture was transferred to each well, pipetted 10 times to mix, and centrifuged at 12,000 rpm for 5 minutes. The plate was then incubated in a shaker at room temperature for 40 minutes. After that, 15 μL of ADP-Glo Reagent, dissolved at room temperature, was added to each well, pipetted 10 times, and incubated in a shaker at room temperature for 40 minutes. Finally, 30 μL of Kinase Detection Reagent, dissolved at room temperature, was added, pipetted 10 times, incubated in a shaker at room temperature for 30 minutes. Luminescence was measured using a luminescence plate reader. Then, the background value was subtracted from all measured values, and the YES1 kinase activity at compound concentrations of 1 nM, 10 nM, and 100 nM was calculated. The measured values were calculated as percentages using the average value of the negative control. Graphs were drawn using GraphPad Prism, and the enzyme activity was calculated as a percentage of YES1 kinase inhibition at compound concentrations of 1 nM, 10 nM, and 100 nM. IC50 values were obtained using Microsoft Excel.

Sequence of YES1 kinase (P07947 whole entry): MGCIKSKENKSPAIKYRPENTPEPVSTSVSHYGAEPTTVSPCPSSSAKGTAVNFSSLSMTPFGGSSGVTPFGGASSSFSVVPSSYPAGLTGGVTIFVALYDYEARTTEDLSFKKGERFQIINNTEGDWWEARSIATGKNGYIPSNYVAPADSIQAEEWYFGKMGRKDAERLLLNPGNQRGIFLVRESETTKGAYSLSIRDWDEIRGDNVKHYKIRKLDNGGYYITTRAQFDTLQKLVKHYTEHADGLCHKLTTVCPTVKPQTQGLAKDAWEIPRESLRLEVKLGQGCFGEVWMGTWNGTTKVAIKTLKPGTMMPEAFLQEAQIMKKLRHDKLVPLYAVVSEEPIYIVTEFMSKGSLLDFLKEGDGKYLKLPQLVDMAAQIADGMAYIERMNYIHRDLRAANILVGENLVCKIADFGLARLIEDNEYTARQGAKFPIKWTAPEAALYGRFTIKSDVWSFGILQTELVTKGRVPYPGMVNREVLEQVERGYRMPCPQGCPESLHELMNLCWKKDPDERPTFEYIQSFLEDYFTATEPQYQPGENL

In general, GI50 refers to the concentration at which growth is held to half of that of the control. One may read the pIC50 as the IC50 on a negative log10 scale, so that one unit is a factor of ten. As for `COc1cc(-c2cc(N3CCC(N)CC3)n3ncnc(N)c23)ccc1NC(=O)OC(C)(C)CF` [Example 65, 1-fluoro-2-methylpropan-2-yl (4-(4-amino-7-(4-aminopiperidin-1-yl)pyrrolo[2,1-f][1,2,4]triazin-5-yl)-2-methoxyphenyl)carbamate], in assay [1], the GI50 lay within 100 to 1000 nM. Further, the pIC50 on YES1 kinase was no less than 7.00.
One may read the inhibition as the percentage by which the read-out fell short of the control. In the case of `COc1cc(-c2cc(N3CCC(C)(N)CC3)n3ncnc(N)c23)ccc1NC(=O)OC(C)(C)C` [Example 45, tert-butyl (4-(4-amino-7-(4-amino-4-methylpiperidin-1-yl)pyrrolo[2,1-f][1,2,4]triazin-5-yl)-2-methoxyphenyl)carbamate], in assay [1], the GI50 was no more than 100 nM. Besides, the pIC50 on YES1 kinase is no less than 7.00. Further, the inhibition at 0.01 µM at YES1 kinase (compound 10 nM, read-out: YES1 enzyme, % inhibition, 10 nM) is 80%. Besides, the inhibition at 0.1 µM at YES1 kinase (compound 100 nM, read-out: YES1 enzyme, % inhibition, 100 nM) is 92%.
Consider `CNCCC1CCN(c2cc(-c3ccc(NC(=O)OC(C)(C)CF)c(OC)c3)c3c(N)ncnn23)CC1` [Example 66, 1-fluoro-2-methylpropan-2-yl (4-(4-amino-7-(4-(2-(methylamino)ethyl)piperidin-1-yl)pyrrolo[2,1-f][1,2,4]triazin-5-yl)-2-methoxyphenyl)carbamate], for which, in assay [1], the GI50 was no more than 100 nM.
For the compound `CNCCC1CCN(c2c(C)c(-c3ccc(NC(=O)OC(C)(C)C)c(OC)c3)c3c(N)ncnn23)CC1` [Example 77, tert-butyl (4-(4-amino-6-methyl-7-(4-(2-(methylamino)ethyl)piperidin-1-yl)pyrrolo[2,1-f][1,2,4]triazin-5-yl)-2-methoxyphenyl)carbamate], the GI50 in assay [1] was in the range of 100 to 1000 nM.
Consider `COc1cc(-c2c(C)c(N3CCC(N(C)C)CC3)n3ncnc(N)c23)ccc1NC(=O)OC(C)(C)C` [Example 76, tert-butyl (4-(4-amino-7-(4-(dimethylamino)piperidin-1-yl)-6-methylpyrrolo[2,1-f][1,2,4]triazin-5-yl)-2-methoxyphenyl)carbamate], for which the GI50 in assay [1] was no more than 100 nM.
With `CC1(OC(=O)Nc2ccc(-c3cc(N4CCC(N)CC4)n4ncnc(N)c34)c3c2OCO3)CC1` [Example 70, 1-methylcyclopropyl (7-(4-amino-7-(4-aminopiperidin-1-yl)pyrrolo[2,1-f][1,2,4]triazin-5-yl)benzo[d][1,3]dioxol-4-yl)carbamate], the GI50 in assay [1] was 100 to 1000 nM.
Same read-out and setting: next, `COc1cc(-c2c(Cl)c(N3CCC(N(C)C)CC3)n3ncnc(N)c23)ccc1NC(=O)OC(C)(C)C` [Example 124, tert-butyl (4-(4-amino-6-chloro-7-(4-(dimethylamino)piperidin-1-yl)pyrrolo[2,1-f][1,2,4]triazin-5-yl)-2-methoxyphenyl)carbamate]: no more than 100 nM.
As for `COc1cc(-c2cc(CCN3CCC(N)CC3)n3ncnc(N)c23)ccc1NC(=O)OC(C)(C)CF` [Example 68, 1-fluoro-2-methylpropan-2-yl (4-(4-amino-7-(2-(4-aminopiperidin-1-yl)ethyl)pyrrolo[2,1-f][1,2,4]triazin-5-yl)-2-methoxyphenyl)carbamate], the GI50 in assay [1] was no more than 100 nM.
On the same count and under the same terms, with `CNC(=O)C1CCN(c2cc(-c3ccc(NC(=O)OC(C)(C)C)c(OC)c3)c3c(N)ncnn23)CC1` [Example 95, tert-butyl (4-(4-amino-7-(4-(methylcarbamoyl)piperidin-1-yl)pyrrolo[2,1-f][1,2,4]triazin-5-yl)-2-methoxyphenyl)carbamate] the figure was 100 to 1000 nM; with `COc1cc(-c2cc(N3CCC(N)C4(CC4)C3)n3ncnc(N)c23)ccc1NC(=O)OC(C)(C)C` (stereo not shown) [Example 80, tert-butyl (4-(4-amino-7-(8-amino-5-azaspiro[2.5]octan-5-yl)pyrrolo[2,1-f][1,2,4]triazin-5-yl)-2-methoxyphenyl)carbamate], 100 to 1000 nM.
`CNC1CCN(c2c(C)c(-c3ccc(NC(=O)OC(C)(C)CF)c(OC)c3)c3c(N)ncnn23)CC1` [Example 61, 1-fluoro-2-methylpropan-2-yl (4-(4-amino-6-methyl-7-(4-(methylamino)piperidin-1-yl)pyrrolo[2,1-f][1,2,4]triazin-5-yl)-2-methoxyphenyl)carbamate]: the GI50 in assay [1] is no more than 100 nM.
Still for that read-out and setting: with `COc1cc(-c2cc(N3CCC(C)(NC(C)=O)CC3)n3ncnc(N)c23)ccc1NC(=O)OC(C)(C)C` [Example 96, tert-butyl (4-(4-amino-7-(4-acetamido-4-methylpiperidin-1-yl)pyrrolo[2,1-f][1,2,4]triazin-5-yl)-2-methoxyphenyl)carbamate] the figure was greater than 10000 nM; with `COc1cc(-c2cc(N3CCC(N)CC3)n3ncnc(N)c23)ccc1NC(=O)OC1(C)CC1` [Example 71, 1-methylcyclopropyl (4-(4-amino-7-(4-aminopiperidin-1-yl)pyrrolo[2,1-f][1,2,4]triazin-5-yl)-2-methoxyphenyl)carbamate], no more than 100 nM.
Same read-out and setting: with `CNC1CCN(c2c(C)c(-c3ccc(NC(=O)OC(C)(C)C)c(OC)c3)c3c(N)ncnn23)CC1` [Example 75, tert-butyl (4-(4-amino-6-methyl-7-(4-(methylamino)piperidin-1-yl)pyrrolo[2,1-f][1,2,4]triazin-5-yl)-2-methoxyphenyl)carbamate] the figure was no more than 100 nM; with `COc1cc(-c2c(C)c(N3CCC(N(C)C)CC3)n3ncnc(N)c23)ccc1NC(=O)OC(C)(C)CF` [Example 62, 1-fluoro-2-methylpropan-2-yl (4-(4-amino-7-(4-(dimethylamino)piperidin-1-yl)-6-methylpyrrolo[2,1-f][1,2,4]triazin-5-yl)-2-methoxyphenyl)carbamate], no more than 100 nM; with `COc1cc(-c2c(C)c(N3CCC(N)CC3)n3ncnc(N)c23)ccc1NC(=O)OC(C)(C)CF` [Example 60, 1-fluoro-2-methylpropan-2-yl (4-(4-amino-7-(4-aminopiperidin-1-yl)-6-methylpyrrolo[2,1-f][1,2,4]triazin-5-yl)-2-methoxyphenyl)carbamate], no more than 100 nM.
With `COc1cc(-c2cc(CCN3CCC(N(C)C)CC3)n3ncnc(N)c23)ccc1NC(=O)OC(C)(C)CF` [Example 69, 1-fluoro-2-methylpropan-2-yl (4-(4-amino-7-(2-(4-(dimethylamino)piperidin-1-yl)ethyl)pyrrolo[2,1-f][1,2,4]triazin-5-yl)-2-methoxyphenyl)carbamate], the GI50 in assay [1] is no more than 100 nM.
Take `CNC1CCN(c2cc(-c3ccc(NC(=O)OC(C)(C)C)c(OC)c3)c3c(N)nccn23)CC1` [Example 133, tert-butyl (4-(1-amino-6-(4-(methylamino)piperidin-1-yl)pyrrolo[1,2-a]pyrazin-8-yl)-2-methoxyphenyl)carbamate]: the GI50 in assay [1] lay in the range of 100 to 1000 nM.
